In US12257287B2, “Glucagon-derived peptide and use thereof” (Tianjin Institute of Pharmaceutical Research Co., Ltd., priority 2018, dated 2025):
≈ marks a conversion by molar mass, not a printed value. Numbered stars: 1 amine (or outer) side, 2 acyl side, 3 side chain; on linkers, the order of the positions; unused ones are H or OH. Square brackets hold non-standard residues; d marks the D form. Side chains are listed from the residue outwards. Peptide text beside a SMILES is read from it. * marks the point of attachment. C20 diacid = O=C(O)CCCCCCCCCCCCCCCCCCC(=O)*; γGlu = O=C(O)[C@H](CCC(=O)[*:2])N[*:1]; AEEA = NCCOCCOCC(=O)O; Aib = CC(C)(N)C(=O)O

Assays:
[1] = Accelerated chemical stability in injection solvent system (HPLC-UV); assay type: physicochemical; conditions: 14 days, phosphate buffer pH 7.3 with Tween 80 and phenol, main peak area vs day 0
Procedure, shortened: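 Compound dissolved in 10 mM pH 8.5 sodium hydrogen phosphate buffer, adjusted to pH 7.3, with Tween 80 and phenol added. Solutions stored 14 days at 10 °C and 37 °C; HPLC-UV main-peak area by normalisation compared against day 0.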

[2] = Glucose tolerance test in glucose-loaded DIO mice; assay type: in vivo; conditions: DIO mice, conclusions on Tables 4 and 6
Procedure, shortened: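 DIO mice fasted 16 h received compound subcutaneously; 1 h later, glucose 1 g/kg was given intraperitoneally. Blood glucose measured at 0.5, 1 and 1.5 h; AUC compared with model control group to give blood glucose inhibition rate (%).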

[3] = biological target: T1, GC receptor (Homo sapiens, UniProt P47871); assay: GC receptor mediated cAMP production in vitro (HEK293 cells transfected with GC receptor); assay type: cell-based; conditions: 20 min at 37° C., read-out: GCGR (nM EC50)
T1 construct: expressed in transfected cells; host or cells: HEK293 cells
T1 sequence (P47871 26-477): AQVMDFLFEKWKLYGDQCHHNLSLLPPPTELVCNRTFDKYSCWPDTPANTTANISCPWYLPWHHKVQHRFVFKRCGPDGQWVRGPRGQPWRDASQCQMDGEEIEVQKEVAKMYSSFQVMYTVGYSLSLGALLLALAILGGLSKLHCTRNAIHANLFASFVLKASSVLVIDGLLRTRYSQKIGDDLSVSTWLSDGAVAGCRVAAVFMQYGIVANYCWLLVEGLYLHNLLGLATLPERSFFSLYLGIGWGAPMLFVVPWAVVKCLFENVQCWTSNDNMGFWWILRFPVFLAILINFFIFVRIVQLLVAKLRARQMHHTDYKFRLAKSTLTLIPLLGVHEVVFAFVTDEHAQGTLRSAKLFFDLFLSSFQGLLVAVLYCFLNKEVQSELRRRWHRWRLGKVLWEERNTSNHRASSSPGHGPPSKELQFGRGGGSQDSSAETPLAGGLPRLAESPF
Description: (§1) The medium was removed, the cells were lysed, and cAMP values were detected referring to the detection method described for the assay kit.

[4] = Short-term administration: food intake and body weight in DIO mice; assay type: in vivo; conditions: 30 nmol/kg once every 24 h, twice, − decrease
Procedure, shortened: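 DIO mice (mean body weight 52.5 g), 5 per group, dosed at 30 nmol/kg every 24 h for two doses, in 10 mM PBS pH 7.4; controls received solvent. Food intake and body weight at 48 h expressed as change rate versus the day before dosing.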

[5] = Effect on body weight of DIO mice after 14 days' administration; assay type: in vivo, C57BL/6J mice; conditions: DIO mice, 14 days, conclusions on Tables 3 and 5
Procedure, shortened: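 C57BL/6J mice on H10060 high-fat diet for 34 weeks (DIO; 45.0–52.0 g), 5 per group, dosed subcutaneously once daily for 14 days; controls received saline. Body weight change (%) = (initial − last-day weight)/initial weight; positive values mean loss.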

[6] = physchem; assay type: physicochemical
Description: 2 mg of the compound was weighed, dissolved in 1 ml of phosphate buffer solutions with different concentrations (10, 20 mM) and different pH values (7.5, 8.0), and centrifuged, and supernatant was taken. The peak area was measured by HPLC (chromatographic column: Aeris widepore XB-C18 3.6 mm, 4.6×150 mm; mobile phase: A: 0.05% TFA, B: 95% acetonitrile; detection wavelength: 214 nm) and compared with a corresponding sample standard solution, and the relative concentration of the test sample solution is calculated.

[7] = biological target: T2, human GLP-1 receptor (Homo sapiens, UniProt P43220); assay: GLP-1 receptor mediated cAMP production in vitro; assay type: cell-based; conditions: cells transfected with human GLP-1 receptor, 20 min at 37° C., read-out: GLP-1R (nM EC50)
T2 construct: expressed in transfected cells; host or cells: Chinese guinea pig lung cells [sic]
T2 sequence (P43220 24-463): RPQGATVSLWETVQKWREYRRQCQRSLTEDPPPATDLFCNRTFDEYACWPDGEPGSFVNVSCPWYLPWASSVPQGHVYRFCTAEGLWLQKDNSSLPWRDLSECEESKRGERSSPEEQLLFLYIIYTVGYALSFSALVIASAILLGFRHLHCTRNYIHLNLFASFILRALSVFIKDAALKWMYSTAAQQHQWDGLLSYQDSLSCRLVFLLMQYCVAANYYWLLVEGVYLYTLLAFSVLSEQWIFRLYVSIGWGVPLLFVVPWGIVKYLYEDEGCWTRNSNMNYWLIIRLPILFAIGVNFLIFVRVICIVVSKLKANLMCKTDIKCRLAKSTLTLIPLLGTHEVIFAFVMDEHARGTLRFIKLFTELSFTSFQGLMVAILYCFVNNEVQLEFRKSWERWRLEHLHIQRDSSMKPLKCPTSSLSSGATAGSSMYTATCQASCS
Description: as §1
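For Solubility in this document: compound added at 2 mg per mL of phosphate buffer, with the dissolved amount determined in the supernatant.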

## CC[C@H](C)[C@H](NC(=O)[C@H](Cc1ccccc1)NC(=O)[C@H](CCC(=O)O)NC(=O)[C@H](CCCCN)NC(=O)[C@H](C)NC(=O)[C@H](C)NC(=O)[C@H](CCCNC(=N)N)NC(=O)[C@H](CCC(=O)O)NC(=O)[C@H](CCC(=O)O)NC(=O)[C@H](CC(C)C)NC(=O)[C@H](Cc1ccc(O)cc1)NC(=O)[C@H](CCCCN)NC(=O)[C@H](CO)NC(=O)[C@H](CCCCNC(=O)COCCOCCNC(=O)COCCOCCNC(=O)CC[C@H](NC(=O)CCCCCCCCCCCCCCCCCCC(=O)O)C(=O)O)NC(=O)[C@H](CC(=O)O)NC(=O)[C@H](CO)NC(=O)[C@@H](NC(=O)[C@H](Cc1ccccc1)NC(=O)[C@@H](NC(=O)CNC(=O)[C@H](CCC(N)=O)NC(=O)C(C)(C)NC(=O)[C@@H](N)Cc1c[nH]cn1)[C@@H](C)O)[C@@H](C)O)C(=O)N[C@@H](C)C(=O)N[C@@H](Cc1c[nH]c2ccccc12)C(=O)N[C@@H](CC(C)C)C(=O)N[C@@H](CCC(=O)O)C(=O)N[C@@H](C)C(=O)NCC(=O)NCC(=O)N1CCC[C@H]1C(=O)N[C@@H](CO)C(=O)N[C@@H](CO)C(=O)NCC(N)=O [Compound 35] (H-H[Aib]QGTFTSDK([AEEA-AEEA-γGlu-C20 diacid])SKYLEERAAKEFIAWLEAGGPSSG-NH2; N-terminus assumed)
[1]; 10° C.
  Change in purity % (10° C.): −0.6%
[1]; 37° C.
  Change in purity % (37° C.): −3.1%
[2]
  glucose tolerance / blood glucose lowering (in words): significantly improved glucose tolerance
[3]
  EC50: 0.036 nM
[4]; at 48 hours vs day before administration
  Rate of change in food intake (%): −59%
[4]; at 48 hours
  Body weight change: -3.2 g
[5]
  body weight reduction (in words): significantly reduced body weight
[6]; pH 7.5, Solubility, pH 7.5, 10 mM phosphate buffer
  solubility: 1840 µg/mL (≈ 416 µM)
[6]; pH 7.5, Solubility, pH 7.5, 20 mM phosphate buffer
  solubility: 1170 µg/mL (≈ 264 µM)
[6]; pH 8, Solubility, pH 8.0, 10 mM phosphate buffer
  solubility: > 2000 µg/mL
[6]; pH 8, Solubility, pH 8.0, 20 mM phosphate buffer
  solubility: > 2000 µg/mL
[7]
  EC50: 0.044 nM
